According to US11352352B2, “Aminopyrimidine compound, preparation method therefor and use thereof” (BEIJING ADAMADLE BIOTECHNOLOGY LIMITED LIABILITY COMPANY, priority 2017, dated 2022):

Tests used:
NCI-H1975 = experiment: Cell proliferation inhibition experiment, CellTiter-Glo (CTG) method; type: cell-based; conditions: for IC50: Homo sapiens, NCI-H1975, 72 h, NCI-H1975 cells, CTG, 3 days; for A-431/NCI-H1975 Selectivity: ratio of A-431 IC50 to NCI-H1975 IC50
Procedure, shortened: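 NCI-H1975 cells with viability above 90% by trypan blue were seeded at 90 μL per well in black 96-well plates and incubated overnight at 37° C., 5% CO2. Compounds were added at nine concentrations in triplicate, and viability was measured with CellTiter-Glo luminescence on EnVision. IC50 came from non-linear S-curve fitting in GraphPad Prism 5.0.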

PC-9 = experiment: as above; type: cell-based; conditions: Homo sapiens, PC-9, 72 h, PC-9 cells, 3 days
Procedure, shortened: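 Cells in log-phase growth (viability above 90% by trypan blue) were seeded at 90 μL per well in black-walled, clear-bottom 96-well plates and incubated overnight at 37° C., 5% CO2. A T0 plate was read the next day. Test compounds were added at nine concentrations in triplicate with a solvent control. Viability was measured by CellTiter-Glo luminescence on EnVision, and IC50 came from non-linear S-curve fitting in GraphPad Prism 5.0.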

A-431 = experiment: as above; type: cell-based; conditions: Homo sapiens, A-431, 72 h, A-431 cells, 3 days
Procedure, shortened: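 Cells seeded overnight at 37 °C, 5% CO2, then treated with nine 3-fold dilutions in triplicate, top 30 μM for A-431 and 1.111 μM for NCI-H1975 and PC-9; solvent control. After 3 days, viability read by CellTiter-Glo luminescence; IC50 from non-linear sigmoidal fit of survival rate.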

P-gp = target: T1, P-gp (Homo sapiens, UniProt P08183); experiment: P-gp substrate evaluation experiment (MDCKII-MDR1 Transwell drug penetration test); type: in vitro ADME; conditions: dog, MDCK-MDR1, pH 7.4; read-out: ER (Efflux Ratio)
T1 construct: expressed in transfected cells; host or cells: MDCKII-MDR1 (MDCKII canine kidney cells expressing MDR1)
T1 sequence (P08183 whole entry): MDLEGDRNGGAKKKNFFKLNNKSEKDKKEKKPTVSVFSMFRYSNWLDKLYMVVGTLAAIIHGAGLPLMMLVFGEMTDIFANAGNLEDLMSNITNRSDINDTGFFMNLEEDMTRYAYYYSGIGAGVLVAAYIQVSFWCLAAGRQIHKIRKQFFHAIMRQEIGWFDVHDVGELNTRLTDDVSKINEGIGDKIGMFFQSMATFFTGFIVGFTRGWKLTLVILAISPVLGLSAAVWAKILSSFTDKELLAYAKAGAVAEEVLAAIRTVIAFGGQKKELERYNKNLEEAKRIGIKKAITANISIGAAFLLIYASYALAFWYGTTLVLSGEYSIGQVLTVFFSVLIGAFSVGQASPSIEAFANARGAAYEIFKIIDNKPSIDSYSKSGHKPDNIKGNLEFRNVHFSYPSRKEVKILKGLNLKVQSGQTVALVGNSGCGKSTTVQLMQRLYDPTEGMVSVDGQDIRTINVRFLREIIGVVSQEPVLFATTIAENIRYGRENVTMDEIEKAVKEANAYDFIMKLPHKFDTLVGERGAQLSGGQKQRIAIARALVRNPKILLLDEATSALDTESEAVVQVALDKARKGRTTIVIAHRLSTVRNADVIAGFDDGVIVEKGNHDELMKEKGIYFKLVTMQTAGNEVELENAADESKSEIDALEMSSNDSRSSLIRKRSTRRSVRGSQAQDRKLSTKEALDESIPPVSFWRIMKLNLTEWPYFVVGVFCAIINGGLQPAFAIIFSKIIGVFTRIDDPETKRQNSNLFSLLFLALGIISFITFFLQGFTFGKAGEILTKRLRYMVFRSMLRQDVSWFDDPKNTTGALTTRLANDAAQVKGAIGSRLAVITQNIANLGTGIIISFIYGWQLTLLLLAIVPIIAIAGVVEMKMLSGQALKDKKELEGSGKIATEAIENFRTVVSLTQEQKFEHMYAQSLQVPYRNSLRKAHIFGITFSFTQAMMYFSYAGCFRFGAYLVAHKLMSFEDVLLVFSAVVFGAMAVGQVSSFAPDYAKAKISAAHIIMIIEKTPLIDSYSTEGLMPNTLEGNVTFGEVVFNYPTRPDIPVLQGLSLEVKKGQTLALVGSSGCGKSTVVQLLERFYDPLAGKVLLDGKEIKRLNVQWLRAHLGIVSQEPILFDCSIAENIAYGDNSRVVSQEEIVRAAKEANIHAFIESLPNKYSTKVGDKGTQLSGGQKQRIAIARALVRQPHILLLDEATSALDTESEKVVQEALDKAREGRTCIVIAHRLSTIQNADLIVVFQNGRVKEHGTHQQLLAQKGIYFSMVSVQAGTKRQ
Description: P-gp Substrate Evaluation Experiment
Cell Culture • 1) High glucose DMEM medium containing L-glutamine was used and 10% fetal bovine serum, 0.1 mg/mL streptomycin and 0.6 mg/mL penicillin were added. • 2) MDCKII-MDR1 was cultured in a T-75 cell culture bottle. The incubator was set at the condition of 37° C., 5% CO2 and 95% relative humidity. Cells could be inoculated in Transwell when the cell confluence reached 70-90%. • 3) Before cell plant, 50 μL cell culture medium was added to each well in the upper chamber of the Transwell, and […] cell culture medium was added to the lower chamber of the Transwell.
Inoculation of MDCKII-MDR1 Cells • 1) Cell suspension was added to the upper chamber of the 96-well Transwell plate with […] each well, and the final inoculation density was 5.45×10^5 cells/cm^2. • 2) The medium was changed 48 hours after inoculation, the culture was carried out for 4-7 days, and the medium was changed every other day.
Evaluation of Cell Monolayer Integrity • 1) After 4-7 days of culture, MDCKII-MDR1 and MDKII should merge and differentiate completely. At this time, they could be applied to penetration test. • 2) The resistance of cell monolayer was measured by a resistance meter (Millipore, USA) and the resistance of each well was recorded. • 3) After finishing the detection, the Transwell plate was put back into the incubator. • 4) Resistance value was calculated: Resistance measured (ohms)×layer area (cm^2)=TEER value (ohm·cm^2)
If TEER value was less than 42 ohms·cm^2, the well can not be used for penetration testing.
Drug Penetration Test • 1) The MDCKII-MDR1 Transwell plate was taken out from the incubator. The cell monolayer was rinsed with HBSS buffer (25 mM HEPES, pH 7.4) twice and incubated for 30 minutes at 37° C. • 2) The transport rate of compounds from the top to the bottom was determined. […] 70 μL supernatant was drawn, diluted with equal volume of water and then subjected to LC-MS/MS analysis. All samples were prepared in three parallel ways. • 6) The cell monolayer integrity after 2-hour incubation was evaluated by leakage of fluorescent yellow, HBSS (25 mM HEPES, pH 7.4) was used to dilute the stock solution of fluorescent yellow till the final concentration was 100 μM. 100 μL fluorescent yellow solution was added to each well in the upper chamber of the Transwell plate and 300 μL HBSS (25 mM HEPES, pH 7.4) was added to each well in the lower chamber of the Transwell plate. After incubation at 37° C. for 30 minutes, 80 μL solution was drawn respectively from each well in the upper and lower chamber to a new 96-well plate. The fluorescence was determined at 485 nm as excitation wavelength and 530 nm as emission wavelength by using a microplate reader.
Data calculation was carried out through Excel, the apparent permeability index (Papp, cm/s) of compounds was calculated through the formula shown as follow: […]
wherein, the membrane area in the formula is the membrane area of Transwell-96 plate (0.143 cm^2); the unit of incubation time is second (s).
Efflux ratio was calculated through the formula shown as follow: […]

Compound | IC50 (NCI-H1975) [nM] | A-431/NCI-H1975 Selectivity (NCI-H1975) | IC50 (PC-9) [nM] | IC50 (A-431) [nM] | efflux ratio at 2 h (P-gp)
C=CC(=O)Nc1cc(Nc2cc(-c3ccc4cnn(C)c4c3)ncn2)c(OC(F)F)cc1N1CCC(N2CCCC2)CC1 [compound 164] | 12.6 | 46.9 | 23.2 | 591 | 34.4
C=CC(=O)Nc1cc(Nc2cc(-c3ccc4c(cnn4C)c3)ncn2)c(OC(F)F)cc1N1CCC(N(CC)CC)CC1 [compound 168] | 6.8 | 85.9 | 21.5 | 584 | 23.1
C=CC(=O)Nc1c(N(C)CCN(C)C)cc(OC)c(Nc2cc(-c3ccc4cnn(C)c4c3)ncn2)c1F [compound 172] | 18.6 | 51.3 | 16.3 | 954 | 43.9
C=CC(=O)Nc1cc(Nc2cc(-c3ccc4cnn(C)c4c3)ncn2)c(OC)cc1N1CCC(N(C)C)CC1 [compound 173] | 22.7 | 46.5 | 7.3 | 1050 | 32.2
C=CC(=O)Nc1cc(Nc2cc(-c3ccc4cnn(C)c4c3)ncn2)c(OC(F)F)cc1N(C)CCN(C)C [compound 176] | 21.2 | 50.9 | 4.8 | 1080 | 3.98
C=CC(=O)Nc1cc(Nc2cc(-c3ccc4cnn(C)c4c3)ncn2)c(OC)cc1N1CCC(N2CCCCC2)CC1 [compound 179] | 16.2 | 60.7 | 2.9 | 984 | 17.1
C=CC(=O)Nc1cc(Nc2cc(-c3ccc4cnn(C)c4c3)ncn2)c(OC)cc1N(C)CCN(C)CC [compound 180] | 25.1 | 35.6 | 3.8 | 894 | 3.07
C=CC(=O)Nc1cc(Nc2cc(-c3ccc4cnn(C)c4c3)ncn2)c(OC)cc1N1CCC(N2CCC(OC)C2)CC1 (centres unmarked) [compound 203] | 8.1 | 121.2 | 7.2 | 982 | 6.51
C=CC(=O)Nc1cc(Nc2cc(-c3ccc4c(cnn4C)c3)ncn2)c(OC)cc1N1CCC(N2CC(OC)C2)CC1 [compound 206] | 8.1 | 95.4 | 12.1 | 773 | 5.87
C=CC(=O)Nc1cc(Nc2cc(-c3ccc4c(cnn4C)c3)ncn2)c(OC)cc1N1CCC(N2CCN(C3COC3)CC2)CC1 [compound 210] | 10.4 | 94.5 | 11.7 | 983 | 11.4
C=CC(=O)Nc1cc(Nc2cc(-c3ccc4ncsc4c3)ncn2)c(OC)cc1N1CCN(CCN(C)C)CC1 [compound 250] | 12.5 | 81.9 | 12.7 | 1020 | 15.8
C=CC(=O)Nc1cc(Nc2cc(-c3ccc4ncsc4c3)ncn2)c(OC)cc1NCCN(C)C [compound 251] | 12.5 | 88.2 | 7 | 1100 | 42.6
C=CC(=O)Nc1cc(Nc2cc(-c3ccc4c(cnn4C)c3)ncn2)c(OC)cc1N1CCN(CCO)CC1 [compound 267] | 16.1 | 64.4 | 29.3 | 1040 | 14.6
